Measurements from patent US10507199B2, “Molecules in the tryptophan-5-hydroxytryptophan-serotonin-NAS-melatonin/6-hydroxymelatonin sulfate-melatonin receptor 1A pathway in neurological diseases” (priority 2017, dated 2019).
Entries after “also recorded” stand apart in the source; their conditions may differ.

What was measured:
[1] = test system: mSOD1 G93A ALS transgenic mice; assay: mSOD1 G93A ALS mice: disease onset (rotarod), survival, body weight; type: in vivo, mouse
Description: Motor strength and coordination were evaluated using a rotarod. Mice were evaluated at both 15 and 5 rpm rotarod speeds. […] Mortality was defined as the age at death or when the mouse was unable to right itself within 30 second. Body weight was monitored weekly.
To determine whether NAS could be used therapeutically in these subjects, NAS was administered at 15 mg/kg/day by daily IP injection initiated at 6 weeks of age. […] ALS disease onset was defined as failure to pass the rotarod task at 15 rpm. […] Thus NAS administration also prevents motor neuron loss in mSOD1 G93A ALS mice.

[2] = test system: motor neurons in lumbar spinal cord of mSOD1 G93A ALS mice; assay: Nissl staining of motor neurons in lumbar spinal cord of mSOD1 G93A ALS mice; type: in vivo, mouse; details: NAS treatment vs saline vehicle
Description: Nissl staining was performed in mSOD1G93A ALS mice and wild type littermates. Serial lumbar spinal cords were sectioned at 18 μm. Continuous 10 sections per mouse were subjected to Nissl staining. Stained motor neurons were counted in the ventral horns of all sections.

WT mice = assay: Body weight of WT mice under NAS; type: in vivo, mouse; details: NAS 7.5, 15, 30, 45 mg/kg, daily IP injection started at 6 weeks
cerebral ischemia = details: NAS administration; Zhou et al. 2014; cited from earlier work
[3] = test system: neonatal H-I brain injury (P8 mice, unilateral carotid ligation and 60 min hypoxia); assay: Neonatal hypoxia-ischemia mouse model, H&E staining and brain area loss; type: in vivo
Description: For histological analyses, after various time points after H-I brain injury, mice were anesthetized with IP injection of 100 mg/kg pentobarbital and then perfused through the left ventricle with PBS. […] The sections corresponding to image 205 up to caudal hippocampus region of Allen mouse brain atlas were directly mounted on SuperFrost Plus® microscope slides. H&E staining was performed on the brain at 7 days post H-I injury comprising of right unilateral carotid ligation and 60 min hypoxia. Brain sections of 50 μm thickness were stained with hematoxylin and eosin (all reagents from Fisher Scientific, Santa Clara, Calif.), dehydrated in graded ethanol solutions, cleared with xylene, examined under light microscope, and subsequently scanned with Epsom V500 photo scanner for measurements. The cross-sectional unaffected and affected areas of the hippocampus, and cortex were measured with NIH imageJ software. A total of 5 coronal slices through the same hippocampus regions were inspected for tissue loss for each animal. The total cross-sectional area in each brain region was calculated in all sections assessed, and the percentage of area loss in the lesioned hemisphere versus the unlesioned hemisphere was determined for each animal. The person performing the measurements was blinded to the study groups. Images of H & E stained sections were quantified using ImageJ software package to measure hemispheric area contralateral and ipsilateral to the H-I brain injury in order to calculate the amount of tissue lost on the ipsilateral hemisphere. The loss of brain tissue ipsilateral to the H-I injury was calculated as a percentage of the non-injured contralateral hemisphere.

[4] = test system: neonatal H-I brain injury (P8 mice, unilateral carotid ligation and 45 min hypoxia); assay: Neonatal hypoxia-ischemia mouse model, Fluoro-Jade B staining and histological score; type: in vivo; details: melatonin 5 mg/kg IP once daily, 48 hr after H-I
Description: FJB staining was performed at 48 hr post H-I injury of UCL followed by 45 min hypoxia. Fluoro-Jade is an anionic fluorochrome capable of selectively staining degenerating neurons in brain slices. Coronal sections of 16 μm thickness were stained with FJB using the method adapted from Schmued and colleagues.^41 Briefly, tissues mounted on glass slides were sequentially placed in 100% ethanol for 3 min, 70% ethanol for 1 min and deionized water for 1 min. Sections were oxidized for 15 min using 0.06% KMnO4 solution followed by 3 brief rinses in PBS. Slides were then immersed in a 0.001% solution of Fluoro-Jade (Histochem, Jefferson, A R) in 0.1% acetic acid for 30 min, rinsed with PBS, dried for 20 min at 45° C., cleared with xylene and cover slips applied using DPX medium. FJB stained sections were examined under a microscope independently by 2 investigators blinded to the treatment group. […] The total scores for the hippocampus and cortex were compared in melatonin treated and vehicle group.

[5] = test system: neonatal hypoxic-ischemic brain injury; details: melatonin 15 mg/kg; Carloni et al.; cited from earlier work
[6] = test system: melatonin receptor 1A (MT1); details: melatonin 10 mg/kg, 30 min prior to H-I; 48 hr post H-I
Description: A model of hypoxia-ischemia in newborn mice pups based on modification of Rice-Vannucci model of unilateral carotid ligation (UCL) followed by hypoxia was used.^40 C57/BL6 wild type and MT1 knockout (KO) mice litters of postnatal day 8 (P8) pups were anesthetized with 2.5% isofluorane and balanced room air, and the right common carotid artery permanently ligated. Time to anesthesia and completion of surgery was timed with a stopwatch to limit the procedure to less than 3 min. Following recovery from anesthesia after 15 min, the pups were placed in hypoxia chamber through which 8% oxygen was delivered at 6 liters per min for 60 min for histology, western blot and immunostaining and 45 mins for FJB staining. Normothermia was maintained by placing the pups in an incubator at 34° C. throughout the experiment except during hypoxia when the temperature was increased to 36° C. to counteract the cooling effect of the 8% 02 gas flow. […]
The lysate was cleared by centrifugation at 19,720×g for 10 min at 4° C., and the supernatant was analyzed by Western blotting.^20 Following right unilateral carotid ligation (UCL), C57/BL6 P8 pups were subjected to 60 min of hypoxia. […] The resulting supernatants were analyzed by Western blotting.^20, 44 Protein concentration was measured by the Bradford method.

humans = details: cited from earlier work
[7] = NAS 15 mg/kg/day, daily IP injection initiated at 6 weeks of age
[8] = melatonin 10 mg/kg IP once daily, first dose 30 min before H-I, 60 min hypoxia, 7 days after H-I, H&E

Row | SMILES | loss of body weight during pathogenesis in mSOD1 G93A mice ([1]; NAS 15 mg/kg, daily IP injection started at 6 weeks) | ALS disease onset (failure to pass the rotarod task at 15 rpm) [1, 7] | survival / mortality [1, 7] | loss of motor neurons in lumbar spinal cord (Nissl staining) [2] | body weight in WT mice (WT mice) | lesion size (cerebral ischemia) | neurological score (cerebral ischemia) | neuronal cell death (cerebral ischemia) | hippocampal tissue (area) loss in the brain ipsilateral to carotid ligation [3, 8] [%] | percentage brain tissue loss in the brain hemisphere ipsilateral to carotid ligation compared to the uninjured contralateral hemisphere [3, 8] [%] | reduction in hippocampus damage ([3]; melatonin 10 mg/kg, hippocampus) [%] | reduction in brain damage ([3]; melatonin 10 mg/kg, whole hemisphere) [%] | score of FJB positive cells in the cortex [4] | score of FJB positive cells in the hippocampus [4] | reduction in brain damage [5] [%] | MT1 expression in brains of H-I pups (western blot) [6] | side effects in humans (humans; humans) | safety profile in human newborns (humans; oxidative stress conditions in human newborns: asphyxia, sepsis, respiratory distress syndrome)
1 | CC(=O)NCCc1c[nH]c2ccc(O)cc12 [NAS, N-acetylserotonin] | prevents the loss of body weight | delayed disease onset; also recorded: delays ALS disease onset | extending survival | ameliorate the loss of motor neurons | no effect on body weight | diminish lesion size | improve neurological score | attenuate neuronal cell death |  |  |  |  |  |  |  |  |  | 
2 | COc1ccc2[nH]cc(CCNC(C)=O)c2c1 [melatonin, N-acetyl-5-methoxytryptamine] |  |  |  |  |  |  |  |  | 28.6 | 9.7 | 57 | 60 | significantly higher score (representing worse damage) in vehicle treated pups compared with melatonin treated pups | significantly higher score (representing worse damage) in vehicle treated pups compared with melatonin treated pups | 64 | significantly ameliorated MT1 loss | minimal | good safety profile with no significant complications
